Peptide text beside a SMILES is read from it.
Key:
[1] = Dissolution in deionized water and visual appearance of peptide solution; format: physicochemical
Protocol: ST14 and T14 were tested for dissolution in deionized water and appearance in solution at various concentrations.

[2] = Atomic Force Microscopy (AFM) morphological study of peptide nano structures; format: physicochemical; settings: 100 μM peptide solution on mica, air-dried, tapping mode
Protocol: Atomic Force Microscopy (AFM) images of ST14 and T14 peptides were investigated to visualize their nano structures. […] Each sample was left on the mica for about 30 seconds (s) and then rinsed with aliquots of 100 μl of Milli-Q (ultrapure) water to remove unattached peptides. The sample on the mica surface was then air-dried for AFM observation. AFM was performed with Asylum-1 MFP-3D AFM System (Asylum Research, Santa Barbara, Calif.) using a tapping mode. The images utilized an Olympus Si tip (AC240FS). The cantilever's free resonance frequency was 70 kHz.

[3] = Congo Red assay of gel formation in PBS buffer (pH 7.4); format: physicochemical
Protocol: A Congo Red assay was performed to determine gel formation of peptide solutions in a PBS buffer solution (pH 7.4). 100 μl of each gel at varying concentrations were plated on a glass slide. After 30 seconds, 500 μl of a 1% Congo Red solution in PBS buffer (pH 7.4) was added around and on top of each of the gel aliquots and then the excess Congo Red solution was wiped off prior to examination.
ST14 and T14 were plated at varying concentrations of 0.5%, 1.0%, 1.5%, 2.0%, 2.5% and 5.0%. Visualization of gel formation determined the success or failure of gelation at each concentration.

[4] = Autoclave stability/sterilization, mass spectrometry before and after autoclave; format: physicochemical; settings: 121° C. for 25 min, high pressure saturated steam; N-terminus and C-terminus not protected
Text: Sterilization is a very important step in the manufacturing process for all biomaterials, including the self-assembling peptide solutions.

[5] = pH of peptide solutions in deionized water; format: physicochemical
Protocol: The pH of the peptides in deionized water to provide a peptide solution were measured at various concentrations. […] ST14 and T14 were tested. The recorded pH values ranged from about 1.9 to about 2.5.

[6] = Rheological properties at various concentrations (stress sweep, rheometer); format: physicochemical; settings: 37° C.; for Loss Modulus (G′) / Storage Modulus (G′): at 1 Pa of oscillation stress; for Loss Modulus (G′) / Storage Modulus (G′) / Max. Viscosity (max η′) / Yield Stress: 10 rad/s; for Max. Viscosity (max η′) / Yield Stress: stress sweep
Protocol: The rheological properties of the ST14 were evaluated at various concentrations using a rheometer (AR500, TA Instruments) with 40 mm plates. Peptide solution (700 μL) was placed on the rheometer plate and excess solution was gently removed by Kimwipes; measurements were performed after 2 minutes of relaxation time at 37° C. The storage modulus, loss modulus, and viscosity (η′) were measured at 37° C. with the plates placed at a measuring geometry gap of 300 μm, and stress sweep tests were performed at 0.1 Pa˜1000 Pa of oscillation stress with angular frequency at 10 rad/s.

[7] = Effect of DMEM treatment on rheological properties (storage modulus); format: physicochemical; settings: 1% peptide; DMEM (pH 7.4) for 2 minutes; 1 Pa, 10 rad/s; 37° C.
Protocol: The effects of Dulbecco's modified Eagle's medium (DMEM) (pH 7.4) on the rheological properties of ST14 were evaluated on a rheometer (AR500, TA Instruments) with 40 mm plates. DMEM is a cell culture medium that contains 6.4 g/L of NaCl, 3.4 g/L NaHCO3 (sodium bicarbonate), minor amounts of other salts, various amino acids, and 4.5 g/L of glucose. The pH of DMEM is 7.2±0.2 and the osmolality is 335±30 mOsm/Kg H2O; both measurements are close to human physiological fluids such as blood. Peptide solutions (1%) were kept in 4° C. for at least 48 hours before testing. To perform the experiment, 1 mL of peptide solution was gently pipetted and placed on the plate of the rheometer. 2 mL of DMEM solution was gently added around the peptide solution. The peptide solution was treated with DMEM for two minutes, then the media was removed, and the plates were placed at a measuring geometry gap at around 450 μm. Measurements were performed at 37° C. after 2 min of relaxation time. Frequency tests were performed from 1 rad/s to 100 rad/s at 1 Pa of oscillation stress.
The rheological properties of ST14 (1%) were compared before and after DMEM treatment for 2 minutes in FIG. 14. […]

[8] = system: C57 BL/6 Mouse Mesenchymal Stem Cells (mMSCs); assay: Cell viability (cytotoxicity) assay in hydrogel drop cultures; format: cell-based; settings: 5 million cells/ml, 10% sucrose, peptide concentration over 0.75% (tested 0.50% to 1.5%)
Protocol: A cell viability (cytotoxicity) assay was performed to measure the ability of ST14 o support the viability of C57 BL/6 Mouse Mesenchymal Stem Cells (mMSCs)—a frequently-used cell line in hydrogel tissue culture systems. The hydrogel was prepared at a concentration of 2.5% and then diluted to concentrations of 1.5%, 1.25%, 1.0%, 0.75%, and 0.50% with sucrose, so that the final concentration of sucrose was 10%. Cells were washed and re-suspended in 10% sucrose to a final concentration of 5 million cells/ml. Cells were centrifuged and the supernatant was removed. The cells were re-suspended in each of the concentrations of hydrogels in 10% sucrose. The protocol was then followed for plating drop cultures and subsequent isolation as described in the PuraMatrix® Guidelines for Use (BD/Corning website).

[9] = concentration 0.5% in deionized water
[10] = concentration 1.0% in deionized water
[11] = concentration 1.5% in deionized water
[12] = concentration 2.0% in deionized water
[13] = concentration 2.5% in deionized water

## CC(O)C(N)C(=O)NC(C(=O)NC(C(=O)NC(C(=O)NC(C(=O)NC(C(=O)NC(C(=O)NC(C(=O)NC(C(=O)NC(C(=O)NC(C(=O)NC(C(=O)NC(C(=O)NC(C(=O)O)C(C)O)C(C)O)C(C)O)C(C)O)C(C)O)C(C)O)C(C)O)C(C)O)C(C)O)C(C)O)C(C)O)C(C)O)C(C)O (stereo not drawn) [Peptide T14]
[1]; 1 percent w/v to 5 percent w/v
  appearance of solution in deionized water: translucent
[1]; 5 percent w/v
  thickness of solution in deionized water: formed a thick solution
[2]
  AFM morphology (nano structure): Aggregates have been detected
[3]; below 1%
  gel formation (Congo Red): did not form a gel
[4]
  degradation during autoclave treatment (mass spec): did not degrade
[5]; [9]
  pH: 2.5
[5]; [10]
  pH: 2.3
[5]; [11]
  pH: 2.2
[5]; [12]
  pH: 2.1
[5]; [13]
  pH: 2.0

## CC(O)C(NC(=O)C(CO)NC(=O)C(NC(=O)C(CO)NC(=O)C(NC(=O)C(CO)NC(=O)C(NC(=O)C(CO)NC(=O)C(NC(=O)C(CO)NC(=O)C(NC(=O)C(CO)NC(=O)C(NC(=O)C(N)CO)C(C)O)C(C)O)C(C)O)C(C)O)C(C)O)C(C)O)C(=O)O (stereo not drawn) [ST14] (H-STSTSTSTSTSTST-OH; configuration not given here)
[6]; Concentration 1
  Loss Modulus (G′): 11.4 Pa
  Storage Modulus (G′): 67 Pa
  Max. Viscosity (max η′): 1.2 Pa-s
  Yield Stress: 5.0 Pa
[6]; Concentration 1.5
  Loss Modulus (G′): 9.8 Pa
  Storage Modulus (G′): 94 Pa
  Max. Viscosity (max η′): 1.5 Pa-s
  Yield Stress: 7.9 Pa
[6]; Concentration 2
  Loss Modulus (G′): 17.3 Pa
  Storage Modulus (G′): 136 Pa
  Max. Viscosity (max η′): 2.0 Pa-s
  Yield Stress: 10.0 Pa
[6]; Concentration 2.5
  Loss Modulus (G′): 17.1 Pa
  Storage Modulus (G′): 167 Pa
  Max. Viscosity (max η′): 2.2 Pa-s
  Yield Stress: 15.9 Pa
[6]; concentrations 1 to 2.5
  storage modulus, yield stress, and max. viscosity versus concentration: increased with increasing concentration
[1]; 1 percent w/v to 5 percent w/v
  appearance of solution in deionized water: translucent
  thickness of solution in deionized water: formed thick solutions
[7]
  fold increase of storage moduli after DMEM treatment: 6.9 fold
[2]
  AFM morphology (nano structure): forms self-assembled nanofibers
[3]; 0.5%
  gel formation (Congo Red): did not form a gel
[4]
  degradation during autoclave treatment (mass spec): did not degrade
[5]; [9]
  pH: 2.5
[5]; [10]
  pH: 2.2
[5]; [11]
  pH: 2.1
[5]; [12]
  pH: 2.0
[5]; [13]
  pH: 1.9
[8]
  cell viability: significantly decreased

Source: US10961274B2, “Self-assembling peptides comprising non-ionic polar amino acids for anti-adhesion” (3-D Matrix, Ltd., priority 2015, dated 2021)
